Source: patent publication US5272150A, “Hydroxyalkylfuranyl derivatives” (Janssen Pharmaceutica N.V., priority 1992, dated 1993)

Test system: compound 48/80-induced lethality in rats
Assay: Protection of rats from compound 48/80-induced lethality
Format: in vivo
Details: Rattus norvegicus, subcutaneous administration (sc)
Text: Int. Pharmacodyn. Ther. 251, 39-51 (1981).
The term (sc) signifies subcutaneous administration.

Compound	ED50 [mg/kg]
Cc1nc2sccn2c(=O)c1CCN1CCC(Cc2nc3ccccc3n2Cc2ccc(CO)o2)CC1 [1.08]	0.01
OCc1ccc(Cn2c(CC3CCN(CCNc4cnccn4)CC3)nc3ccccc32)o1 [1.22]	0.04
O=c1[nH]c2ccccc2n1CCN1CCC(Nc2nc3ccccc3n2Cc2ccc(CO)o2)CC1 [3.19]	0.02
OCc1ccc(Cn2c(CC3CCN(CCc4ccccn4)CC3)nc3cccnc32)o1 [Co. No. 2.35, 5-[[2-[[1-[2-(2-pyridinyl)ethyl]-4-piperidinyl]methyl]-3H-imidazo[4,5-b]-pyridin-3-yl]methyl]-2-furanmethanol (E)-2-butenedioate(2:3)]	0.02
N#CCN1CCC(Nc2nc3ccccc3n2Cc2ccc(CO)o2)CC1 [Co. No. 3.22, 4-[[1-[[5-(hydroxymethyl)-2-furanyl]-methyl]-1H-benzimidazol-2-yl]amino]-1-piperidineacetonitrile]	0.04
Cn1cccc1C(=O)NCCN1CCC(Cc2nc3ccccc3n2Cc2ccc(CO)o2)CC1 [1.15]	0.04
Cc1nc2n(c(=O)c1CCN1CCC(Nc3nc4ccccc4n3Cc3ccc(CO)o3)CC1)CCS2 [3.15]	0.04
O=C(O)C(=O)O.O=C(O)C(=O)O.O=C(O)C(=O)O.OCc1ccc(Cn2c(CC3CCN(CCNc4cccnn4)CC3)nc3ccccc32)o1 [Co. No. 1.24, 5-[[2-[[1-[2-(3-pyridazinylamino)ethyl]-4-piperidinyl]methyl]-1H-benzimidazol-1-yl]methyl]-2-furanmethanol ethanedioate (1:3)]	0.02
Cc1nc2ccccn2c(=O)c1CCN1CCC(Nc2nc3cccnc3n2Cc2ccc(CO)o2)CC1 [2.10]	0.04
O=[N+]([O-])c1cnccc1NCCN1CCC(Nc2nc3ccccc3n2Cc2ccc(CO)o2)CC1 [Co. No. 3.26, 5-[[2-[[1-[2-[(3-nitro-4-pyridinyl)amino]-ethyl]-4-piperidinyl]amino]-1H-benzimidazol-1-yl]methyl]-2-furanmethanol]	0.04
O=[N+]([O-])c1cnccc1NCCN1CCCC(Nc2nc3ccccc3n2Cc2ccc(CO)o2)CC1 (stereo not drawn) [Co. No. 4.14, 5-[[2-[[hexahydro-1-[2-[(3-nitro-4-pyridinyl)amino]ethyl]-1H-azepin-4-yl]amino]-1H-benzimidazol-1-yl]methyl]-2-furanmethanol hemihydrate]	0.04
CN1CCC(Cc2nc3ccccc3n2Cc2ccc(CO)o2)CC1 [Co. No. 1.17, 5-[[2-[(1-methyl-4-piperidinyl)methyl]-1H-benzimidazol-1-yl]methyl]-2-furanmethanol]	0.04
CCn1nnn(CCN2CCC(Cc3nc4ccccc4n3Cc3ccc(CO)o3)CC2)c1=O [1.07]	0.04
OCc1ccc(Cn2c(CC3CCN(CCNc4ncccn4)CC3)nc3ccccc32)o1 [1.23]	0.02
CN1CCC(Nc2nc3cncnc3n2Cc2ccc(CO)o2)CC1 [5.04]	0.02
Cc1cc2nc(C)c(CCN3CCC(Nc4nc5cccnc5n4Cc4ccc(CO)o4)CC3)c(=O)n2o1 [2.32]	0.02
CCn1nnn(CCN2CCC(Nc3nc4ccccc4n3Cc3ccc(CO)o3)CC2)c1=O [3.13]	0.04
Cc1nc2ccccn2c(=O)c1CCN1CCC(Nc2nc3ccccc3n2Cc2ccc(CO)o2)CC1 [3.17]	0.04
CC(C)NC(=O)CCN1CCC(Nc2nc3ccccc3n2Cc2ccc(CO)o2)CC1 [Co. No. 3.12]	0.04
Cc1nc2n(c(=O)c1CCN1CCC(Nc3nc4ccccc4n3Cc3ccc(CO)o3)CC1)CCCS2 [Co. No. 3.31]	0.04
O=c1ccc(NCCN2CCC(Cc3nc4ccccc4n3Cc3ccc(CO)o3)CC2)n[nH]1 [Co. No. 1.25, 6-[[2-[4-[[1-[[5-(hydroxymethyl)-2-furanyl]methyl]-1H-benzimidazol-2-yl]methyl]-1-piperidinyl]ethyl]amino]-3(2H)-pyridazinone ethanedioate (2:5)]	0.01
COc1ccc(CCN2CCC(Cc3nc4ccccc4n3Cc3ccc(CO)o3)CC2)cc1 [1.11]	0.04
Cc1nc2ccccn2c(=O)c1CCN1CCC(Cc2nc3ccccc3n2Cc2ccc(CO)o2)CC1 [1.09]	0.02
Cc1nc2sccn2c(=O)c1CCN1CCC(Nc2nc3cncnc3n2Cc2ccc(CO)o2)CC1 [5.03]	0.04
Cc1nc2sccn2c(=O)c1CCN1CCC(Nc2nc3cccnc3n2Cc2ccc(CO)o2)CC1 [2.09]	0.01
CC(C)NC(=O)CCN1CCC(Cc2nc3ccccc3n2Cc2ccc(CO)o2)CC1 [1.12]	0.01
Cc1nc2n(c(=O)c1CCN1CCC(Cc3nc4ccccc4n3Cc3ccc(CO)o3)CC1)CCS2 [1.10]	0.01
CN1CCC(Nc2nc3ccccc3n2Cc2ccc(CO)o2)CC1 [3.03]	0.02
Cc1nc2n(c(=O)c1CCN1CCC(Cc3nc4cccnc4n3Cc3ccc(CO)o3)CC1)CCCS2 [2.33]	0.04
OCc1ccc(Cn2c(NC3CCNCC3)nc3ccccc32)o1 [Co. No. 3.11, 5-[[2-(4-piperidinylamino)-1H-benzimidazol-1-yl]methyl]-2-furanamethanol]	0.04
